Molecules are shown by their SMILES.

The first series has as its system N5-12G6 riboswitch. In words: Firefly luciferase assay, N5-12G6 riboswitch in HEK293 cells. Particulars: 12G6 riboswitch, luciferase, HEK293, 2 μM.
Description: Transfection: 3.5×10^4 human embryonic kidney (HEK) 293 cells were plated in a 96-well flat bottom plate the day before transfection. Plasmid DNA (500 ng) was added to a tube or a 96-well U-bottom plate. Separately, TransIT-293 reagent (Mirus; 1.4 L) was added to 50 μL Optimum I media (Life Technologies) and allowed to sit for 5 minutes at room temperature (RT). Then, 50 μL of this diluted transfection reagent was added to the DNA, mixed, and incubated at RT for 20 min. Finally, 7 μL of this solution was added to a well of cells in the 96-well plate. Four hours after transfection, medium containing transfection solution was replaced by medium with either TPP or fursultiamine as aptamer ligands.
Firefly luciferase assay of cultured cells: Twenty-four hours after media change, plates were removed from the incubator, and equilibrated to RT for several minutes on a lab bench, then aspirated. Glo-lysis buffer (Promega, 100 μL, RT) was added, and the plates allowed to remain at RT for at least 5 minutes. Then, the well contents were mixed by 50 μL trituration, and 20 μL of each sample was mixed with 20 μL of bright-glo reagent (Promega) that had been diluted to 10% in glo-lysis buffer. 96 wells were spaced on an opaque white 384-well plate. Following a 5 min incubation at RT, luminescence was measured using a Tecan machine with 500 ms read time. The luciferase activity was expressed as mean arbitrary light units (ALU)±S.D., and fold induction was calculated as the quotient of the luciferase activity obtained from cells with TPP or analog compound treatment divided by the luciferase activity obtained from cells without TPP or analog compound treatment.
As for `Fc1cc(CNc2cncc(Cl)c2N2CCNCC2)cc2nccnc12` [compound 053, 5-chloro-N-((8-fluoroquinoxalin-6-yl)methyl)-4-(piperazin-1-yl)pyridin-3-amine], the “Fold induction 2 μM (HEK)” value is recorded as 16.8 fold.

Regarding `Fc1cc(CNc2cncc(Cl)c2N2CCNCC2)cc2nccnc12` [compound 077, 5-chloro-N-((8-fluoroquinoxalin-6-yl)methyl)-4-(piperazin-1-yl)pyridin-3-amine], the “Fold induction 2 μM (HEK)” value is on record as 43.5 fold.

Staying with this series, now noted: Homo sapiens, HEK293, read-out: Fold induction 2 μM (HEK), 12G6 riboswitch, luciferase, HEK293, 2 μM.
With `c1cc(OC2CCNCC2)c(NCc2ccc3nccnc3c2)cn1` [compound 045, 4-(piperidin-4-yloxy)-N-(quinoxalin-6-ylmethyl)pyridin-3-amine], the fold induction at 2 µM turned out to be 12.

As to `c1cc(N2CC3(CNC3)C2)c(NCc2ccc3nccnc3c2)cn1` [compound 046, N-(quinoxalin-6-ylmethyl)-4-(2,6-diazaspiro[3.3]heptan-2-yl)pyridin-3-amine], the fold induction at 2 µM turned out to be 1.6.

As to `CN(C)CCOc1ccncc1NCc1ccc2nccnc2c1` [compound 047, 4-(2-(dimethylamino)ethoxy)-N-(quinoxalin-6-ylmethyl)pyridin-3-amine], the fold induction at 2 µM worked out at 2.7.

As for `N#Cc1ccc(N2CCNCC2)c(NCc2ccc3nccnc3c2)c1` [compound 048, 4-(piperazin-1-yl)-3-((quinoxalin-6-ylmethyl)amino)benzonitrile], the fold induction at 2 µM turned out to be 1.

For `Clc1cc(CNc2cnccc2N2CCNCC2)cc2nccnc12` [compound 049, N-((8-chloroquinoxalin-6-yl)methyl)-4-(piperazin-1-yl)pyridin-3-amine], the fold induction at 2 µM is 5.7.

For the compound `Fc1cc2nccnc2cc1CNc1cnccc1N1CCNCC1` [compound 050, N-((7-fluoroquinoxalin-6-yl)methyl)-4-(piperazin-1-yl)pyridin-3-amine], the fold induction at 2 µM was found to be 23.5.

Take `Fc1nccc(N2CCNCC2)c1NCc1ccc2nccnc2c1` [compound 051, 2-fluoro-4-(piperazin-1-yl)-N-(quinoxalin-6-ylmethyl)pyridin-3-amine]: the fold induction at 2 µM came to 2.7.

Regarding `Fc1cc2nccnc2cc1CNc1cncc(Cl)c1N1CCNCC1` [compound 052, 5-chloro-N-((7-fluoroquinoxalin-6-yl)methyl)-4-(piperazin-1-yl)pyridin-3-amine], the fold induction at 2 µM was 18.9.

As for `Clc1cc2nccnc2cc1CNc1cncc(Cl)c1N1CCNCC1` [compound 054, 5-chloro-N-((7-chloroquinoxalin-6-yl)methyl)-4-(piperazin-1-yl)pyridin-3-amine], the fold induction at 2 µM worked out at 10.6.

With `Clc1cncc(NCc2cc(Cl)c3nccnc3c2)c1N1CCNCC1` [compound 055, 5-chloro-N-((8-chloroquinoxalin-6-yl)methyl)-4-(piperazin-1-yl)pyridin-3-amine], the fold induction at 2 µM was determined as 4.1.

With `C[C@@H]1CN(c2c(Cl)cncc2NCc2ccc3nccnc3c2)CCN1` [compound 056, (R)-5-chloro-4-(3-methylpiperazin-1-yl)-N-(quinoxalin-6-ylmethyl)pyridin-3-amine], the fold induction at 2 µM was determined as 12.9.

As to `C[C@H]1CN(c2ccncc2NCc2cc3nccnc3cc2Cl)CCN1` [compound 057, (S)—N-((7-chloroquinoxalin-6-yl)methyl)-4-(3-methylpiperazin-1-yl)pyridin-3-amine], the fold induction at 2 µM amounted to 22.3.

On to `C[C@@H]1CN(c2ccncc2NCc2cc3nccnc3cc2Cl)CCN1` [compound 058, (R)—N-((7-chloroquinoxalin-6-yl)methyl)-4-(3-methylpiperazin-1-yl)pyridin-3-amine], for which the fold induction at 2 µM is 6.1.

As for `C[C@H]1CN(c2ccncc2NCc2cc(F)c3nccnc3c2)CCN1` [compound 059, (S)—N-((8-fluoroquinoxalin-6-yl)methyl)-4-(3-methylpiperazin-1-yl)pyridin-3-amine], the fold induction at 2 µM worked out at 15.8.

For the compound `C[C@@H]1CN(c2ccncc2NCc2cc(F)c3nccnc3c2)CCN1` [compound 060, (R)—N-((8-fluoroquinoxalin-6-yl)methyl)-4-(3-methylpiperazin-1-yl)pyridin-3-amine], the fold induction at 2 µM is 1.7.

`C[C@H]1CNCCN1c1c(Cl)cncc1NCc1ccc2nccnc2c1` [compound 061, (S)-5-chloro-4-(2-methylpiperazin-1-yl)-N-(quinoxalin-6-ylmethyl)pyridin-3-amine]: the fold induction at 2 µM came to 6.

For the compound `C[C@@H]1CNCCN1c1ccncc1NCc1cc2nccnc2cc1Cl` [compound 062, (R)—N-((7-chloroquinoxalin-6-yl)methyl)-4-(2-methylpiperazin-1-yl)pyridin-3-amine], the fold induction at 2 µM amounted to 8.

With `C[C@H]1CNCCN1c1ccncc1NCc1cc2nccnc2cc1Cl` [compound 063, (S)—N-((7-chloroquinoxalin-6-yl)methyl)-4-(2-methylpiperazin-1-yl)pyridin-3-amine], the fold induction at 2 µM turned out to be 2.7.

With `Clc1cc(CNc2cnccc2OC2CNC2)cc2nccnc12` [compound 064, 4-(azetidin-3-yloxy)-N-((8-chloroquinoxalin-6-yl)methyl)pyridin-3-amine], the fold induction at 2 µM came to 15.

Regarding `C[C@@H]1CNCCN1c1ccncc1NCc1cc(F)c2nccnc2c1` [compound 065, (R)—N-((8-fluoroquinoxalin-6-yl)methyl)-4-(2-methylpiperazin-1-yl)pyridin-3-amine], the fold induction at 2 µM amounted to 21.7.

Turning to `C[C@@H]1CNCCN1c1ccncc1NCc1cc(Cl)c2nccnc2c1` [compound 066, (R)—N-((8-chloroquinoxalin-6-yl)methyl)-4-(2-methylpiperazin-1-yl)pyridin-3-amine], the fold induction at 2 µM was 2.

As for `Fc1c(CNc2cnccc2N2CCNCC2)ccc2nccnc12` [compound 067, N-((5-fluoroquinoxalin-6-yl)methyl)-4-(piperazin-1-yl)pyridin-3-amine], the fold induction at 2 µM worked out at 3.4.

Take `Cc1cc(CNc2cnccc2N2CCNCC2)cc2nccnc12` [compound 068, N-((8-methylquinoxalin-6-yl)methyl)-4-(piperazin-1-yl)pyridin-3-amine]: the fold induction at 2 µM came out at 4.4.

On to `Cc1cc2nccnc2cc1CNc1cnccc1N1CCNCC1` [compound 069, N-((7-methylquinoxalin-6-yl)methyl)-4-(piperazin-1-yl)pyridin-3-amine], for which the fold induction at 2 µM came to 28.3.

Turning to `Cc1c(CNc2cnccc2N2CCNCC2)cc2nccnc2c1C` [compound 070, N-((7,8-dimethylquinoxalin-6-yl)methyl)-4-(piperazin-1-yl)pyridin-3-amine], the fold induction at 2 µM amounted to 2.9.

For `COc1cc(CNc2cnccc2N2CCNCC2)cc2nccnc12` [compound 071, N-((8-methoxyquinoxalin-6-yl)methyl)-4-(piperazin-1-yl)pyridin-3-amine], the fold induction at 2 µM is 6.1.

Take `COc1cc2nccnc2cc1CNc1cnccc1N1CCNCC1` [compound 072, N-((7-methoxyquinoxalin-6-yl)methyl)-4-(piperazin-1-yl)pyridin-3-amine]: the fold induction at 2 µM was 19.6.

As to `Fc1cncc(NCc2ccc3nccnc3c2)c1N1CCNCC1` [compound 073, 5-fluoro-4-(piperazin-1-yl)-N-(quinoxalin-6-ylmethyl)pyridin-3-amine], the fold induction at 2 µM came to 43.9.

With `Brc1cncc(NCc2ccc3nccnc3c2)c1N1CCNCC1` [compound 074, 5-bromo-4-(piperazin-1-yl)-N-(quinoxalin-6-ylmethyl)pyridin-3-amine], the fold induction at 2 µM turned out to be 48.6.

Consider `COc1cncc(NCc2ccc3nccnc3c2)c1N1CCNCC1` [compound 075, 5-methoxy-4-(piperazin-1-yl)-N-(quinoxalin-6-ylmethyl)pyridin-3-amine], for which the fold induction at 2 µM is 18.6.

For the compound `FC(F)c1cncc(NCc2ccc3nccnc3c2)c1N1CCNCC1` [compound 076, 5-(difluoromethyl)-4-(piperazin-1-yl)-N-(quinoxalin-6-ylmethyl)pyridin-3-amine], the fold induction at 2 µM was determined as 117.

`Fc1c(CNc2cncc(Cl)c2N2CCNCC2)ccc2nccnc12` [compound 078, 5-chloro-N-((5-fluoroquinoxalin-6-yl)methyl)-4-(piperazin-1-yl)pyridin-3-amine]: the fold induction at 2 µM came to 6.1.

On to `Fc1cncc(NCc2ccc3nccnc3c2F)c1N1CCNCC1` [compound 079, 5-fluoro-N-((5-fluoroquinoxalin-6-yl)methyl)-4-(piperazin-1-yl)pyridin-3-amine], for which the fold induction at 2 µM came to 4.4.

Take `Fc1cncc(NCc2cc(F)c3nccnc3c2)c1N1CCNCC1` [compound 080, 5-fluoro-N-((8-fluoroquinoxalin-6-yl)methyl)-4-(piperazin-1-yl)pyridin-3-amine]: the fold induction at 2 µM was 31.2.

On to `Fc1cncc(NCc2cc(Cl)c3nccnc3c2)c1N1CCNCC1` [compound 081, N-((8-chloroquinoxalin-6-yl)methyl)-5-fluoro-4-(piperazin-1-yl)pyridin-3-amine], for which the fold induction at 2 µM was 3.9.

Consider `Fc1cc2nccnc2cc1CNc1cncc(F)c1N1CCNCC1` [compound 082, 5-fluoro-N-((7-fluoroquinoxalin-6-yl)methyl)-4-(piperazin-1-yl)pyridin-3-amine], for which the fold induction at 2 µM came out at 24.7.

As for `Fc1cncc(NCc2cc3nccnc3cc2Cl)c1N1CCNCC1` [compound 083, N-((7-chloroquinoxalin-6-yl)methyl)-5-fluoro-4-(piperazin-1-yl)pyridin-3-amine], the fold induction at 2 µM came to 12.8.

For the compound `Cc1cncc(NCc2cc(F)c3nccnc3c2)c1N1CCNCC1` [compound 084, N-((8-fluoroquinoxalin-6-yl)methyl)-5-methyl-4-(piperazin-1-yl)pyridin-3-amine], the fold induction at 2 µM worked out at 66.4.

Staying with this series, now noted: Homo sapiens, HEK293, read-out: Fold induction 3.3 μM (HEK), 12G6 riboswitch, luciferase, HEK293, 3.3 μM.
With `c1cc(O[C@H]2CCNC2)c(NCc2ccc3nccnc3c2)cn1` [compound 044, (S)-4-(pyrrolidin-3-yloxy)-N-(quinoxalin-6-ylmethyl)pyridin-3-amine], the fold induction at 3.3 µM was 22.

For the origin of these results see patent publication US20250101436A1, “APTAMERS AND SMALL MOLECULE LIGANDS” (MeiraGTx UK II Limited, priority 2021, published 2025).
